In ChEMBL document CHEMBL1201862, “PubChem BioAssay data set” (2004):
Where a name gives a salt, the structure may show the parent alone.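 Grown in 96-well plates, cells were treated for 48 hours with each compound at five concentrations. Insufficient inhibition: endpoint recorded as highest concentration tested. GI50 marks 50% less growth.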 Calls of active or inactive are those of the source. Rule as the data show it: active = GI50 up to about 1.1 µM and inactive = higher.

Experiments:
Test in all cases: NCI tumour cell line growth inhibition, 48 h
[1] = tested on: CCRF-CEM
[2] = tested on: SF-268
[3] = tested on: SN12C
[4] = tested on: NCI-H522
[5] = tested on: MDA-N
[6] = tested on: RXF 393
[7] = tested on: CAKI-1
[8] = tested on: MDA-MB-231
[9] = tested on: TK-10
[10] = tested on: SNB-19
[11] = tested on: HOP-62
[12] = tested on: Hs-578T
[13] = tested on: ACHN
[14] = tested on: DU-145
[15] = tested on: COLO 205
[16] = tested on: RPMI-8226
[17] = tested on: HT-29
[18] = tested on: UACC-257
[19] = tested on: SF-539
[20] = tested on: IGROV-1
[21] = tested on: PC-3
[22] = tested on: MDA-MB-435
[23] = tested on: K562
[24] = tested on: NCI-H460
[25] = tested on: KM12
[26] = tested on: NCI-H23
[27] = tested on: SK-MEL-5
[28] = tested on: UACC-62
[29] = tested on: SK-MEL-2
[30] = tested on: HCT-15
[31] = tested on: SK-OV-3
[32] = tested on: SW-620
[33] = tested on: UO-31
[34] = tested on: OVCAR-3
[35] = tested on: NCI/ADR-RES
[36] = tested on: HCT-116
[37] = tested on: OVCAR-8
[38] = tested on: SR
[39] = tested on: T47D
[40] = tested on: A498
[41] = tested on: MCF7
[42] = tested on: NCI-H226
[43] = tested on: HL-60
[44] = tested on: M14
[45] = tested on: A549
[46] = tested on: SF-295
[47] = tested on: MOLT-4
[48] = tested on: U-251
[49] = tested on: 786-0
[50] = tested on: LOX IMVI
[51] = tested on: OVCAR-5
[52] = tested on: Malme-3M
[53] = tested on: OVCAR-4
[54] = tested on: HCC 2998
[55] = tested on: EKVX
[56] = tested on: SK-MEL-28
[57] = tested on: SNB-75
[58] = tested on: HOP-92
[59] = tested on: BT-549

C1=C(c2ccccc2)Nc2nnnn2C1c1ccccc1 (stereo unspecified)
GI50 [1]: 0.0125 µM (active)
GI50 [2]: 32.7 µM (inactive)
GI50 [3]: 71.3 µM (inactive)
GI50 [4]: 23.1 µM (inactive)
GI50 [5]: 20.1 µM (inactive)
GI50 [6]: 16.7 µM (inactive)
GI50 [7]: 47.6 µM (inactive)
GI50 [8]: > 100 µM (inactive)
GI50 [9]: 28.6 µM (inactive)
GI50 [10]: 49.4 µM (inactive)
GI50 [11]: 38.5 µM (inactive)
GI50 [12]: 37.5 µM (inactive)
GI50 [13]: 23.6 µM (inactive)
GI50 [14]: 26.9 µM (inactive)
GI50 [15]: 48.6 µM (inactive)
GI50 [16]: < 0.01 µM (active)
GI50 [17]: 17.4 µM (inactive)
GI50 [18]: 48.1 µM (inactive)
GI50 [19]: 25.1 µM (inactive)
GI50 [20]: 83.4 µM (inactive)
GI50 [21]: 53.2 µM (inactive)
GI50 [22]: 11.1 µM (inactive)
GI50 [23]: 21.4 µM (inactive)
GI50 [24]: 34 µM (inactive)
GI50 [25]: 13.5 µM (inactive)
GI50 [26]: > 100 µM (inactive)
GI50 [27]: 40.7 µM (inactive)
GI50 [28]: 46.2 µM (inactive)
GI50 [29]: 27.5 µM (inactive)
GI50 [30]: 15.3 µM
GI50 [31]: 58.1 µM (inactive)
GI50 [32]: 22.1 µM (inactive)
GI50 [33]: > 100 µM (inactive)
GI50 [34]: > 100 µM (inactive)
GI50 [35]: 44 µM (inactive)
GI50 [36]: 9.93 µM (inactive)
GI50 [37]: 34.9 µM (inactive)
GI50 [38]: 12.1 µM (inactive)
GI50 [39]: 47.1 µM (inactive)
GI50 [40]: 37.2 µM (inactive)
GI50 [41]: 7.66 µM (inactive)
GI50 [42]: 47.4 µM (inactive)
GI50 [43]: 21.9 µM (inactive)
GI50 [44]: 23.9 µM (inactive)
GI50 [45]: 44.5 µM (inactive)
GI50 [46]: 28.6 µM (inactive)
GI50 [47]: 22 µM (inactive)
GI50 [48]: 18.6 µM (inactive)
GI50 [49]: 47.2 µM (inactive)
GI50 [50]: 17.3 µM (inactive)
GI50 [51]: 93.3 µM (inactive)

C#CCOCn1ccc(=O)[nH]c1=O
GI50 [52]: > 100 µM (inactive)
GI50 [1]: > 100 µM (inactive)
GI50 [53]: > 100 µM (inactive)
GI50 [2]: > 100 µM (inactive)
GI50 [3]: > 100 µM (inactive)
GI50 [5]: > 100 µM (inactive)
GI50 [7]: > 100 µM (inactive)
GI50 [8]: > 100 µM (inactive)
GI50 [9]: > 100 µM (inactive)
GI50 [10]: > 100 µM (inactive)
GI50 [11]: > 100 µM (inactive)
GI50 [54]: > 100 µM (inactive)
GI50 [12]: > 100 µM (inactive)
GI50 [13]: > 100 µM (inactive)
GI50 [14]: > 100 µM (inactive)
GI50 [15]: > 100 µM (inactive)
GI50 [16]: > 100 µM (inactive)
GI50 [17]: > 100 µM (inactive)
GI50 [18]: > 100 µM (inactive)
GI50 [19]: > 100 µM (inactive)
GI50 [20]: > 100 µM (inactive)
GI50 [21]: > 100 µM (inactive)
GI50 [22]: > 100 µM (inactive)
GI50 [23]: > 100 µM (inactive)
GI50 [24]: > 100 µM (inactive)
GI50 [25]: > 100 µM (inactive)
GI50 [26]: > 100 µM (inactive)
GI50 [27]: > 100 µM (inactive)
GI50 [28]: > 100 µM (inactive)
GI50 [29]: > 100 µM (inactive)
GI50 [30]: > 100 µM
GI50 [55]: > 100 µM (inactive)
GI50 [31]: > 100 µM (inactive)
GI50 [32]: > 100 µM (inactive)
GI50 [33]: > 100 µM (inactive)
GI50 [56]: > 100 µM (inactive)
GI50 [35]: > 100 µM (inactive)
GI50 [36]: > 100 µM (inactive)
GI50 [37]: > 100 µM (inactive)
GI50 [38]: > 100 µM (inactive)
GI50 [39]: > 100 µM (inactive)
GI50 [40]: > 100 µM (inactive)
GI50 [41]: > 100 µM (inactive)
GI50 [42]: > 100 µM (inactive)
GI50 [43]: > 100 µM (inactive)
GI50 [44]: > 100 µM (inactive)
GI50 [57]: > 100 µM (inactive)
GI50 [45]: > 100 µM (inactive)
GI50 [46]: > 100 µM (inactive)
GI50 [47]: > 100 µM (inactive)
GI50 [48]: > 100 µM (inactive)
GI50 [49]: > 100 µM (inactive)
GI50 [50]: > 100 µM (inactive)
GI50 [51]: > 100 µM (inactive)

COc1cccc(/C=C2\CCCc3ccccc3C2=O)c1
GI50 [52]: 19.6 µM (inactive)
GI50 [1]: 12.3 µM (inactive)
GI50 [53]: 13.5 µM (inactive)
GI50 [2]: 10 µM (inactive)
GI50 [3]: 16.1 µM (inactive)
GI50 [4]: 15 µM (inactive)
GI50 [7]: 23.4 µM (inactive)
GI50 [8]: 13.8 µM (inactive)
GI50 [9]: 26.4 µM (inactive)
GI50 [10]: 11.7 µM (inactive)
GI50 [11]: 16.1 µM (inactive)
GI50 [12]: 17.9 µM (inactive)
GI50 [13]: 26.4 µM (inactive)
GI50 [14]: 19.1 µM (inactive)
GI50 [15]: 17.8 µM (inactive)
GI50 [16]: 6.35 µM (inactive)
GI50 [17]: 17.1 µM (inactive)
GI50 [18]: 15.2 µM (inactive)
GI50 [19]: 17.1 µM (inactive)
GI50 [20]: 17.9 µM (inactive)
GI50 [21]: 16.2 µM (inactive)
GI50 [22]: 10.1 µM (inactive)
GI50 [23]: 16.1 µM (inactive)
GI50 [58]: 13.4 µM (inactive)
GI50 [24]: 14.5 µM (inactive)
GI50 [25]: 17.6 µM (inactive)
GI50 [26]: 15.1 µM (inactive)
GI50 [59]: 16.2 µM (inactive)
GI50 [28]: 12.9 µM (inactive)
GI50 [29]: 13.8 µM (inactive)
GI50 [30]: 10.9 µM
GI50 [55]: 21.3 µM (inactive)
GI50 [31]: 30.5 µM (inactive)
GI50 [32]: 17.3 µM (inactive)
GI50 [33]: 15.1 µM (inactive)
GI50 [34]: 17.1 µM (inactive)
GI50 [56]: 18.1 µM (inactive)
GI50 [35]: 17.9 µM (inactive)
GI50 [36]: 13.3 µM (inactive)
GI50 [37]: 19.2 µM (inactive)
GI50 [38]: 13 µM (inactive)
GI50 [41]: 13.6 µM (inactive)
GI50 [42]: 18.8 µM (inactive)
GI50 [43]: 13.8 µM (inactive)
GI50 [44]: 13 µM (inactive)
GI50 [57]: 23.4 µM (inactive)
GI50 [45]: 23 µM (inactive)
GI50 [46]: 14.9 µM (inactive)
GI50 [47]: 19.4 µM (inactive)
GI50 [48]: 15 µM (inactive)
GI50 [49]: 13.1 µM (inactive)
GI50 [50]: 17.4 µM (inactive)
GI50 [51]: 15.3 µM (inactive)

CN(C)CCOC(c1ccccc1)c1ccccc1 [DIPHENHYDRAMINE HYDROCHLORIDE]
GI50 [52]: > 100 µM (inactive)
GI50 [1]: > 100 µM (inactive)
GI50 [53]: > 100 µM (inactive)
GI50 [3]: > 100 µM (inactive)
GI50 [4]: > 100 µM (inactive)
GI50 [5]: > 100 µM (inactive)
GI50 [7]: > 100 µM (inactive)
GI50 [8]: > 100 µM (inactive)
GI50 [9]: > 100 µM (inactive)
GI50 [11]: > 100 µM (inactive)
GI50 [54]: > 100 µM (inactive)
GI50 [12]: 66.7 µM (inactive)
GI50 [13]: > 100 µM (inactive)
GI50 [14]: > 100 µM (inactive)
GI50 [15]: > 100 µM (inactive)
GI50 [16]: 84.3 µM (inactive)
GI50 [17]: > 100 µM (inactive)
GI50 [18]: > 100 µM (inactive)
GI50 [20]: > 100 µM (inactive)
GI50 [21]: > 100 µM (inactive)
GI50 [22]: > 100 µM (inactive)
GI50 [23]: > 100 µM (inactive)
GI50 [58]: 25 µM (inactive)
GI50 [24]: > 100 µM (inactive)
GI50 [25]: > 100 µM (inactive)
GI50 [26]: > 100 µM (inactive)
GI50 [27]: > 100 µM (inactive)
GI50 [29]: 72.4 µM (inactive)
GI50 [30]: > 100 µM
GI50 [55]: > 100 µM (inactive)
GI50 [32]: > 100 µM (inactive)
GI50 [33]: > 100 µM (inactive)
GI50 [34]: > 100 µM (inactive)
GI50 [56]: > 100 µM (inactive)
GI50 [35]: > 100 µM (inactive)
GI50 [36]: > 100 µM (inactive)
GI50 [37]: > 100 µM (inactive)
GI50 [38]: 38.5 µM (inactive)
GI50 [39]: > 100 µM (inactive)
GI50 [41]: > 100 µM (inactive)
GI50 [42]: > 100 µM (inactive)
GI50 [43]: > 100 µM (inactive)
GI50 [44]: 51.2 µM (inactive)
GI50 [45]: > 100 µM (inactive)
GI50 [47]: > 100 µM (inactive)
GI50 [49]: > 100 µM (inactive)
GI50 [50]: > 100 µM (inactive)
GI50 [51]: > 100 µM (inactive)
